Experimental data from ChEMBL document CHEMBL1201862, “PubChem BioAssay data set” (2004).
The source made the active and inactive calls.

Tests used:
[1] = target: T1, G-protein coupled receptor 55 (Homo sapiens, UniProt Q9Y2T6); experiment: GPR55 antagonists blocking LPI-driven arrestin recruitment, primary screen, imaging, U2OS, beta-arrestin-GFP, LPI agonist (AID 2013); assay type: functional;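 further: antagonist potency measured as reduced agonist-driven arrestin aggregation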
[2] = Luminescence Cell-Based Dose Retest to Confirm Inhibitors of Cancer Stem Cells. [Related pubchem assays (depositor defined):AID2717, AID2721]; assay type: functional; conditions: Homo sapiens
Cytochrome P450 3A4 = Cytochrome P450 3A4 (Homo sapiens, UniProt P08684);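 further: CYP3A4 tested as one member of a cytochrome P450 panel screen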
Sequence of Cytochrome P450 3A4 (P08684 whole entry): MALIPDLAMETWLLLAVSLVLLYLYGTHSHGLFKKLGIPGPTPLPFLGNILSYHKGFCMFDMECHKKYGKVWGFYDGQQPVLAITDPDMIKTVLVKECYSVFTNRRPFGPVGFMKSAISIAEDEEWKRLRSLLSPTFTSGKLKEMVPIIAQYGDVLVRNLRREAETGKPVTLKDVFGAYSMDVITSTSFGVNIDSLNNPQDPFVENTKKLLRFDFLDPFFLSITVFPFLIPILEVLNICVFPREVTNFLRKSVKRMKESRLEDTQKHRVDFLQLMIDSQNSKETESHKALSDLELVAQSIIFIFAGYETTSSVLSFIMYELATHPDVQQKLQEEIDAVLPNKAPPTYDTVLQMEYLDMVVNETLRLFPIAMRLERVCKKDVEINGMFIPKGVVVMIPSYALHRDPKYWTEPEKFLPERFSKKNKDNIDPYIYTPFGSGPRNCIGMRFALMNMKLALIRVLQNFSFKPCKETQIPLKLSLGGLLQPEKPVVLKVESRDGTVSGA

BJ [3] = experiment: cytotoxicity toward BJ-TERT fibroblasts, dose response, cell-based, RAS-independent, luminescence (AID 1933); assay type: functional; conditions: Homo sapiens
[4] = target: T2, Heat shock factor protein 1 (Mus musculus, UniProt P38532); experiment: inhibition of MG132-induced HSE-luciferase signal, confirmation, cell-based, NIH3T3, luminescence, dose retest (AID 2382); assay type: functional;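 further: NIH3T3 fibroblasts with HSF1-driven luciferase reporter stressed by proteasome inhibitor MG132; luminescence from HSF1-driven luciferase expression after 8 hours of MG132 stress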
T2 sequence (P38532 whole entry): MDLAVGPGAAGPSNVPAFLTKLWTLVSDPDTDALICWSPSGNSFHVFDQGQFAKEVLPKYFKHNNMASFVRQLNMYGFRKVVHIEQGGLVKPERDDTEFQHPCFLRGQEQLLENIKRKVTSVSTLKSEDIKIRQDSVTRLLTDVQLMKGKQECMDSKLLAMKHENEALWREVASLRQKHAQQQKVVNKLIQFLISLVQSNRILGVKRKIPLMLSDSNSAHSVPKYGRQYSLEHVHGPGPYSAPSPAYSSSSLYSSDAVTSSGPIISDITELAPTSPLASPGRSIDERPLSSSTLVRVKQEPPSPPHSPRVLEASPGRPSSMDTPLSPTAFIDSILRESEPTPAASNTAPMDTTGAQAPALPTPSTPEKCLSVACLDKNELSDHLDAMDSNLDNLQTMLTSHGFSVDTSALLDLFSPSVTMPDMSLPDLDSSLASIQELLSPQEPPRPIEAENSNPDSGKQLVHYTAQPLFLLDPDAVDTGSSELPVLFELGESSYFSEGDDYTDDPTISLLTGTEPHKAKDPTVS

BJ [5] = experiment: cells; assay type: functional, cell-based; conditions: Homo sapiens
BJ [6] = experiment: cytotoxicity toward BJ-TERT-LT-ST fibroblasts, dose response, cell-based, RAS-independent, luminescence (AID 1935); assay type: functional; conditions: Homo sapiens;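 further: BJ fibroblasts immortalized with TERT plus LT and ST oncogenes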
[7] = cytotoxicity toward DRD oncogenic fibroblasts, dose response, cell-based, non-viral oncogenic, luminescence (AID 1934); assay type: functional; conditions: Homo sapiens
[8] = target: T3, Microphthalmia-associated transcription factor (Homo sapiens, UniProt O75030); experiment: TRPM1 promoter luciferase signal decrease, dose response, MITF inhibitor project, cell-based, SK-MEL-5, cherry-picked, set 3 (AID 493073); assay type: functional
T3 sequence (O75030 whole entry): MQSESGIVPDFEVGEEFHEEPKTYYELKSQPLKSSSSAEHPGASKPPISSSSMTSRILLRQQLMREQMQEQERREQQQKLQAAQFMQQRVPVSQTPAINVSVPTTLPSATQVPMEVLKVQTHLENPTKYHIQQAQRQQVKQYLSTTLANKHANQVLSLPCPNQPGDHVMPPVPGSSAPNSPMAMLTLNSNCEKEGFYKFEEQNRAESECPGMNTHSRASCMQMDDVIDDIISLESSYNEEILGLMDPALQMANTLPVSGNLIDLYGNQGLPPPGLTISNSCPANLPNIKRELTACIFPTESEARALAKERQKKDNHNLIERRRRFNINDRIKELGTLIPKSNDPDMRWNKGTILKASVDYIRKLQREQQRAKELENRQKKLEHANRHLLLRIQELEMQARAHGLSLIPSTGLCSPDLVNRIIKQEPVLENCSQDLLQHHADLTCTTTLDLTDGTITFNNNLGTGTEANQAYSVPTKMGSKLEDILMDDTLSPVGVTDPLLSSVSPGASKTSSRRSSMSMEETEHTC

A-375 = experiment: A375 melanoma cell viability reduction, dose response, counter-screen for MITF modulator project, cherry-pick samples, set 2 (AID 540335); assay type: functional, cell-based; conditions: Homo sapiens
Beta-lactamase [9] = target: Beta-lactamase (Salmonella choleraesuis (strain SC-B67), UniProt Q5J463); experiment: Epi-absorbance-based counterscreen for selective VIM-2 inhibitors: dose response biochemical high throughput screening assay to identify inhibitors of TEM-1 serine-beta-lactamase.
Sequence of Beta-lactamase (Salmonella choleraesuis (strain SC-B67), UniProt Q5J463) (Q5J463 whole entry): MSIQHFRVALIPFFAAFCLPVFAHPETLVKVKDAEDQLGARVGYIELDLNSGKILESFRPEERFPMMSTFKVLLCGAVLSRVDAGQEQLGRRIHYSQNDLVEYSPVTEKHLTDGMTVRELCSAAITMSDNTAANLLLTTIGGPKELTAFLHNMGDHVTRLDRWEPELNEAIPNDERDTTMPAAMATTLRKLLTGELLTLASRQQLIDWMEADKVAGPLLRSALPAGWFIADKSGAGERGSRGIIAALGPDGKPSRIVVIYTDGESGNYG

Beta-lactamase [10] = target: T4, Beta-lactamase (Pseudomonas aeruginosa, UniProt Q79MP6); experiment: IMP-1 metallo-beta-lactamase inhibitors, dose response, selectivity assay for VIM-2 inhibitor project, biochemical, epi-absorbance (AID 1920)
T4 sequence (Q79MP6 whole entry): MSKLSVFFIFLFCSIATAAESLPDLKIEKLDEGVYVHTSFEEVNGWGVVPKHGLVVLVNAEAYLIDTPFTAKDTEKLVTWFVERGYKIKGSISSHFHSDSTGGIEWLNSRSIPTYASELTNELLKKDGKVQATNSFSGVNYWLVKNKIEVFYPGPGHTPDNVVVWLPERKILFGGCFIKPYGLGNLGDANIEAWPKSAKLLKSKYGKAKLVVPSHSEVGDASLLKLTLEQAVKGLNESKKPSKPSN

Beta-lactamase [11] = target: T4, Beta-lactamase; experiment: […] counterscreen for selective VIM-2 inhibitors: dose response biochemical high throughput screening assay to identify inhibitors of IMP-1 metallo-beta-lactamase.
[12] = target: DNA dC->dU-editing enzyme APOBEC-3A (Homo sapiens, UniProt P31941); experiment: APOBEC3A DNA deaminase inhibitors, dose response, biochemical (AID 504722); assay type: functional
Sequence of DNA dC->dU-editing enzyme APOBEC-3A (P31941 whole entry): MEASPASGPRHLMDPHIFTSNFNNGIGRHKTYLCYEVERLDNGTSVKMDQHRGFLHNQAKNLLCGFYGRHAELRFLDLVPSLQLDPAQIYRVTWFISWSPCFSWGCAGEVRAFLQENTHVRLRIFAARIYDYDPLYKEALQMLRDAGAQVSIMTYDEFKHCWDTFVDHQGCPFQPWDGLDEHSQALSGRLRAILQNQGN

[13] = target: DNA dC->dU-editing enzyme APOBEC-3G (Homo sapiens, UniProt Q9HC16); experiment: Dose Response confirmation of small molecule APOBEC3G DNA Deaminase Inhibitors via a fluorescence-based single-stranded DNA deaminase assay. [Related pubchem assays (depositor defined):AID493012, AID493028]; assay type: functional
Sequence of DNA dC->dU-editing enzyme APOBEC-3G (Q9HC16 whole entry): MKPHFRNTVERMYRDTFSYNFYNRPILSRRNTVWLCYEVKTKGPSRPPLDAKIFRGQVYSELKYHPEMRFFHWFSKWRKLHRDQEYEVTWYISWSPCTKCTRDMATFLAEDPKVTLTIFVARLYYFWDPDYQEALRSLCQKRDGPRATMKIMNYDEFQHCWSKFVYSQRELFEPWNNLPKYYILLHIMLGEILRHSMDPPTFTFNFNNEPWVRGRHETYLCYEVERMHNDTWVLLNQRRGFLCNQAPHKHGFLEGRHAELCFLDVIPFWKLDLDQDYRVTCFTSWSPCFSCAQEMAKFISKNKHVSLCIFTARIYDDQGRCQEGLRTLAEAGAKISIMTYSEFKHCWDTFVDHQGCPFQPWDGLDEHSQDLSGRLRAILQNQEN

[14] = target: FAD-linked sulfhydryl oxidase ALR (Homo sapiens, UniProt P55789); experiment: inhibitors of human ALR sulfhydryl oxidase, dose response, biochemical, H2O2 detection, luminescence, cherry-pick (AID 493248)
Sequence of FAD-linked sulfhydryl oxidase ALR (P55789 whole entry): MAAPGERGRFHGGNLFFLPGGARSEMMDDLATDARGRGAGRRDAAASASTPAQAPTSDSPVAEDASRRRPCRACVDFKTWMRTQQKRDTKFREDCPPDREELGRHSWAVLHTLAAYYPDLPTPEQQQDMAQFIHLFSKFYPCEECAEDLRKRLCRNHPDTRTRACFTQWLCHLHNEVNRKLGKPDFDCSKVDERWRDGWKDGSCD

[15] = target: T1, G-protein coupled receptor 55; experiment: GPR55 agonists via beta-arrestin recruitment, primary screen, imaging, U2OS cells, beta-arrestin-GFP redistribution (AID 1961); assay type: functional
Cannabinoid receptor 2 [16] = target: T5, Cannabinoid receptor 2 (Homo sapiens, UniProt P34972); experiment: SAR analysis of antagonists of the Cannabinoid Receptor 2 using an Image-Based Assay - Set 2. [Related pubchem assays (depositor defined):AID1961, AID1965]; assay type: functional
T5 sequence (P34972 whole entry): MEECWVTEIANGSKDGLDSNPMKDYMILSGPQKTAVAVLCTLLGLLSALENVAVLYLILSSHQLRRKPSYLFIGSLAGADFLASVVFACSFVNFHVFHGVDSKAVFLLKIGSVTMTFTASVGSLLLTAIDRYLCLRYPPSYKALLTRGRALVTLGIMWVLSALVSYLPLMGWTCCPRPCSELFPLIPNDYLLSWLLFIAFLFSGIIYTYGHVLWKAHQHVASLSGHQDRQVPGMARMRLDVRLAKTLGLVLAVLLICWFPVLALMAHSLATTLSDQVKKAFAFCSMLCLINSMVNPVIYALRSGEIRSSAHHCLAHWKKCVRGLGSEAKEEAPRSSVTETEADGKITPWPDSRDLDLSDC

Cannabinoid receptor 2 [17] = target: T5, Cannabinoid receptor 2; experiment: SAR analysis of agonists of the Cannabinoid Receptor 2 using an Image-Based Assay - Set 2. [Related pubchem assays (depositor defined):AID1961, AID1965]; assay type: functional
[18] = target: T1, G-protein coupled receptor 55; experiment: SAR analysis of selective Agonists of GPR55 using an Image-Based Assay. [Related pubchem assays (depositor defined):AID1961, AID1965]; assay type: functional
Cannabinoid receptor 1 = Cannabinoid receptor 1 (Homo sapiens, UniProt P21554); experiment: SAR analysis of antagonists of the Cannabinoid Receptor 1 using an Image-Based Assay. [Related pubchem assays (depositor defined):AID1961, AID1965]; assay type: functional
Sequence of Cannabinoid receptor 1 (P21554 whole entry): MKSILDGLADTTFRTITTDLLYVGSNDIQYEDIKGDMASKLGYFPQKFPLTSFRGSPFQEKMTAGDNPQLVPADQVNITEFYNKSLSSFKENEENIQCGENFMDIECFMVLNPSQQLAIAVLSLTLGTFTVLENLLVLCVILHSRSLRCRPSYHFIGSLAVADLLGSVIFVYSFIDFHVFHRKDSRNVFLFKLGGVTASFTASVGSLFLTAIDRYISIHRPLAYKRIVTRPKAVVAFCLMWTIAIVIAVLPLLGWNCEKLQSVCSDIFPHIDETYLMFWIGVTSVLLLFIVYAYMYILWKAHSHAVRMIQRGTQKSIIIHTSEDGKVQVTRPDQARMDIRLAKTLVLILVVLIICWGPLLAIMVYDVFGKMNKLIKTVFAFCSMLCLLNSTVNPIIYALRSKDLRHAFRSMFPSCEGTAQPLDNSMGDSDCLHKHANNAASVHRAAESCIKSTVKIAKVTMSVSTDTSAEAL

[19] = target: T6, Alkaline phosphatase, tissue-nonspecific isozyme (Homo sapiens, UniProt P05186); experiment: human TNAP enzyme inhibitors, SAR follow-up, biochemical, luminescent, dose response (AID 1056)
T6 sequence (P05186 whole entry): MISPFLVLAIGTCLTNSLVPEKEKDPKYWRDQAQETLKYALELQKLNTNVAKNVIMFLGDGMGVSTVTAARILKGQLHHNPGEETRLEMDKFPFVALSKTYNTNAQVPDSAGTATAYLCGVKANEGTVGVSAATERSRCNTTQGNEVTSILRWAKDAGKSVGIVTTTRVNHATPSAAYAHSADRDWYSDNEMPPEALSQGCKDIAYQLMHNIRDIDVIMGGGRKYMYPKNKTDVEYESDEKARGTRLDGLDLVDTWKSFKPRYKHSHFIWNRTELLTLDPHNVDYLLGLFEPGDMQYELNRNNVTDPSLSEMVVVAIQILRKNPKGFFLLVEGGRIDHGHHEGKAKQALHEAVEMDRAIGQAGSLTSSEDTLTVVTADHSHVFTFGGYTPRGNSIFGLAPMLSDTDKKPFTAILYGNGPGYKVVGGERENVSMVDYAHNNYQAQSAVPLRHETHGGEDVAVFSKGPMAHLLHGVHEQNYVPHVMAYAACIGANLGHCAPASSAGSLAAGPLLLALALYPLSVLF

[20] = HEp-2 cell cytotoxicity, dose response, cytotoxicity control for RSV inhibitor project, HTS (AID 2410); assay type: functional; conditions: human respiratory syncytial virus
[21] = system: Streptococcus sp. 'group A'; experiment: growth inhibition of control SK(-) GAS strain, dose response, counter-screen for streptokinase expression inhibitor project, luminescence, kanamycin, BacTiterGlo, confirmation (AID 1900); assay type: functional, organism-based
Streptococcus = experiment: Group A Streptococcus viability loss, dose response, counter-screen for streptokinase expression inhibitor project, luminescence, BacTiterGlo (AID 1915); assay type: functional, organism-based;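 further: potency for reduction of bacterial viability or growth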
CHO-K1 = experiment: Counterscreen for antagonists of the orexin 1 receptor (OX1R; HCRTR1): Homogeneous time resolved fluorescence (HTRF)-based cell-based dose response assay to identify antagonists of the parental CHO-K1 cell line. [Related pubchem assays (depositor defined):AID434989, AID435008, AID463079, AID485270, AID492963, AID492964, AID492965, AID493232, AID504699, AID504701]; assay type: functional; conditions: Cricetulus griseus;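 further: potency for inhibition of ATP-stimulated IP1 production as antagonists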
[22] = Counterscreen for antagonists of the orexin 1 receptor (OX1R; HCRTR1): Fluorescence-based cell-based high throughput dose response assay to identify antagonists of the parental CHO cell line. [Related pubchem assays (depositor defined):AID434989, AID435008, AID463079, AID485270, AID492963, AID492964, AID492965, AID493232, AID504699, AID504701]; assay type: functional
[23] = target: T7, Orexin/Hypocretin receptor type 1 (Homo sapiens, UniProt O43613); experiment: Homogeneous Time Resolved Fluorescence (HTRF)-based cell-based high throughput dose response assay for antagonists of the orexin 1 receptor (OX1R; HCRTR1). [Related pubchem assays (depositor defined):AID434989, AID435008, AID463079, AID485270, AID492963, AID492964, AID492965, AID493232, AID504717, AID504718]; assay type: functional
T7 sequence (O43613 whole entry): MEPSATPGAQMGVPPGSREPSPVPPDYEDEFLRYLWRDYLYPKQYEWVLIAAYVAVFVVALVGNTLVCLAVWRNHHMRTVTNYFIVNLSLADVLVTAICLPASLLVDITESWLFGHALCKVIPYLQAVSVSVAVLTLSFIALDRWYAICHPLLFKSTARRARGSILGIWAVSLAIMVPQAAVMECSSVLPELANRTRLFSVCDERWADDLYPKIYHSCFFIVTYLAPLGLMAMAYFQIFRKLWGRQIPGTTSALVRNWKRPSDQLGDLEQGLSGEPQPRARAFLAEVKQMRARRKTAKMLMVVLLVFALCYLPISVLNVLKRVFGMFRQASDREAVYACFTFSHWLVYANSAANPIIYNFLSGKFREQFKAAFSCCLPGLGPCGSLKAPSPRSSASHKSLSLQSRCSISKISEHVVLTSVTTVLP

[24] = target: T7, Orexin/Hypocretin receptor type 1; experiment: Fluorescence-based cell-based high throughput dose response assay for antagonists of the orexin 1 receptor (OX1R; HCRTR1). [Related pubchem assays (depositor defined):AID434989, AID435008, AID463079, AID485270, AID492963, AID492964, AID492965, AID493232, AID504717, AID504718]; assay type: functional
[25] = target: Glyceraldehyde-3-phosphate dehydrogenase (Homo sapiens, UniProt P04406)
Sequence of Glyceraldehyde-3-phosphate dehydrogenase (P04406 whole entry): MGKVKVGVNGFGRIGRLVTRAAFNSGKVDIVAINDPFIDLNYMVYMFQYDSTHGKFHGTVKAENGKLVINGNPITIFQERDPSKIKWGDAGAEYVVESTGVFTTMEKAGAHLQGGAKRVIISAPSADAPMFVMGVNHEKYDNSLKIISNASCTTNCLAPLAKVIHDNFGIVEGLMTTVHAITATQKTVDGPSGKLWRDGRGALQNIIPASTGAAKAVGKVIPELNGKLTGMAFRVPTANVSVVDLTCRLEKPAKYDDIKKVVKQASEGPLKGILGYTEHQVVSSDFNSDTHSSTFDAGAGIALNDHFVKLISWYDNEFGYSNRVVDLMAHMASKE

Troponin, cardiac muscle = Troponin, cardiac muscle (Homo sapiens, UniProt P19429+P45379+P63316); experiment: Fluorescence-based biochemical high throughput dose response assay for activators of the calcium sensitivity of cardiac Regulated Thin Filaments (RTF). [Related pubchem assays (depositor defined):AID493008, AID493018, AID504382, AID504383]; assay type: protein-complex assay

T1 sequence (Q9Y2T6 whole entry): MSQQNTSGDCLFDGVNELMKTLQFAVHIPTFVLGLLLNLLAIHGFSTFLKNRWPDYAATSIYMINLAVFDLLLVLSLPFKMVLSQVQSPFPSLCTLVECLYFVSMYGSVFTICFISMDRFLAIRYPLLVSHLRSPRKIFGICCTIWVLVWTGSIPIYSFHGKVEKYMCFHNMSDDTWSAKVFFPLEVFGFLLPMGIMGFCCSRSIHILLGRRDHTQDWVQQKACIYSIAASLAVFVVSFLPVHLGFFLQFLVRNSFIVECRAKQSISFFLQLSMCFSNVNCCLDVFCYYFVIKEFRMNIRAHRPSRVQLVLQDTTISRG

O=c1c2ccccc2nc2n1C1(CCCCC1)Cc1ccccc1-2
IC50 [1]: 2.41 µM (active)
AC50 [2]: 2.06 µM (active)

Cc1ccc(C(=O)c2c[nH]c(C(=O)NCCCN3CCOCC3)c2)cc1
AC50 (Cytochrome P450 3A4): inconclusive

CCCCN1C=CC(=C2C(=O)c3ccccc3C2=O)C=C1
EC50 (BJ [3]): 6.03 µM (active)
EC50 [4]: 0.356 µM (active)
EC50 (BJ [5]): 7.56 µM (active)
EC50 (BJ [6]): > 150 µM (inconclusive)
EC50 [7]: 7.63 µM (active)
AC50 [8]: 0.921 µM (active)
AC50 (A-375): 20.6 µM (active)

S=c1[nH]nc(-c2ccco2)n1Cc1ccccc1
IC50 (Beta-lactamase [9]): > 59.6 µM (inactive)
IC50 (Beta-lactamase [10]): > 59.6 µM (inactive)
IC50 (Beta-lactamase [11]): > 59.6 µM (inactive)
IC50 [12]: > 100 µM (inactive)
IC50 [13]: 2.89 µM (active)
AC50 [14]: 7.95 µM (active)

COc1ccc2cc(C)c3nnc(SCC(=O)Nc4nc(-c5ccc(F)cc5)cs4)n3c2c1
EC50 [15]: < 0.5 µM (active)
IC50 (Cannabinoid receptor 2 [16]): > 32 µM (inactive)
EC50 (Cannabinoid receptor 2 [17]): > 32 µM (inactive)
EC50 [18]: 0.164 µM (active)
IC50 (Cannabinoid receptor 1): > 32 µM (inactive)

Cc1nn(C(C)(C)C)c(OC(=O)c2cccs2)c1Sc1ccccc1
IC50 [1]: 5.36 µM (active)

CCOc1cc(C)c(C(C)C)cc1S(=O)(=O)Nc1cccnc1
IC50 [19]: 18.9 µM (active)

O=C(O)c1ccc(N2C(=O)CC(SC(=NCc3ccc4c(c3)OCO4)Nc3ccc(F)cc3)C2=O)cc1 (centres undefined)
CC50 [20]: 32.4 µM (active)
EC50 [21]: 4.89 µM (active)
EC50 (Streptococcus): 29 µM (active)
IC50 (CHO-K1): > 66.2 µM (inactive)
IC50 [22]: 23.2 µM (inactive)
IC50 [23]: 24.5 µM (inactive)
IC50 [24]: 14.3 µM (inactive)
IC50 (cells): 23.9 µM (active)

COc1ccc2c(c1)cc(C)c1nnc(SCC(=O)N(C)c3nc(-c4ccccc4)cs3)n12
IC50 (Cannabinoid receptor 2 [16]): > 32 µM (inactive)
EC50 (Cannabinoid receptor 2 [17]): > 32 µM (inactive)
EC50 [18]: > 32 µM (inactive)
IC50 (Cannabinoid receptor 1): > 32 µM (inactive)

Cc1cc(C)c(S(=O)(=O)Nc2ccc3ccccc3c2)c(C)c1
IC50 [25]: > 100 µM (not active)
IC50 [19]: > 100 µM (inactive)

COC(=O)N1CCC2(CCN(Cc3nccs3)CC2)CC1
AC50 (Cytochrome P450 3A4): inconclusive

Cc1nnc(N/N=C/c2ccc(O)c([N+](=O)[O-])c2)nc1O
EC50 (Troponin, cardiac muscle): > 71.5 µM (inactive)
